Source: patent publication US11634425B2, “Pharmaceutical compounds” (priority 2019, dated 2023)
Like-named read-outs stand apart in the source and are kept apart here.

How the values were obtained:
Cell cytotoxicity (CC50) = assay type: cell-based; settings: human; mean of at least two experiments
Method in brief: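 Values are means of ≥2 independent runs, rounded to whole units, from 4-parameter variable-slope curve fits. Toxicity measured in Hep-G2 cells run alongside RSV plaque-reduction assays.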

in vitro [1] = assay type: in vitro ADME; settings: microsomes, pH 7.4, 1 μM compound, 0.5 mg/mL protein, read-out: Liver Microsomal Stability t1/2
Method in brief: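 Pooled liver microsomes (0.5 mg/mL protein) in 0.1 M phosphate pH 7.4 with 1 μM compound and 1 mM NADPH at 37° C., sampled at 0–45 min; minus-NADPH control at 45 min. Acetonitrile quench, LC-MS/MS; t1/2 and CLint from ln peak-area ratio vs time slope.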

in vitro [2] = assay type: in vitro ADME; settings: hepatocytes, 3 μM compound, read-out: Liver Hepatocyte Stability t1/2
Protocol: Compounds were subjected to the following assays to investigate liver microsomal stability and hepatocyte stability.
Hepatocyte Incubation: Experimental Procedure
Cryopreserved pooled hepatocytes were purchased from a reputable commercial supplier and stored in liquid nitrogen prior to use. Williams E media supplemented with 2 mM L-glutamine and 25 mM HEPES and test compound (final substrate concentration 3 μM; final DMSO concentration 0.25%) are pre-incubated at 37° C. prior to the addition of a suspension of cryopreserved hepatocytes (final cell density 0.5×10^6 viable cells/mL in Williams E media supplemented with 2 mM L-glutamine and 25 mM HEPES) to initiate the reaction. The final incubation volume is 500 μL. Two control compounds were included with each species, alongside appropriate vehicle control. The reactions are stopped by transferring 50 μL of incubate to 100 μL acetonitrile containing internal standard at the appropriate time points. Samples were removed at 6 time points (0, 5, 15, 30, 45 and 60 min) over the course of a 60 min experiment. The termination plates are centrifuged at 2500 rpm at 4° C. for 30 min to precipitate the protein. Following protein precipitation, the sample supernatants were combined in cassettes of up to 4 compounds and analysed using generic LC-MS/MS conditions. From a plot of ln peak area ratio (compound peak area/internal standard peak area) against time, the gradient of the line is determined. Subsequently, half-life (t1/2) and intrinsic clearance (CLint) were calculated.

in vivo [3] = assay type: in vivo, rat (Sprague Dawley); settings: male SD rat; for Vd / clearance / Cmax / half-life / AUC(0-t): Sprague Dawley, in vivo; for Cmax / C 8 h: IV 1 mg/kg / PO 10 mg/kg study; for AUC(0-t): read-out: PO AUClast
Protocol: The pharmacokinetics of compounds were studied in vivo in rats at doses of 1 mg/kg (IV) and 10 mg/kg (PO).
Male rats [Sprague Dawley (SD)] surgically prepared with a jugular vein cannula were treated with experimental compounds via intravenous administration (IV; n=3; 1 mg/kg) or oral administration (PO; n=3; 10 mg/kg). Compounds were formulated as a solution in 40:60 dimethylacetamide:saline (IV administration) and a solution of 10% DMSO, 20% cremaphor in water (70%) (PO administration). […] Serial blood samples were collected via the cannula at 0.02, 0.08, 0.25, 0.5, 1, 2, 4, 6, 8 and 24 h post IV dosing of compound, and at 0.08, 0.25, 0.5, 1, 2, 4, 6, 8 and 24 h post oral dosing of compound, and plasma was prepared by centrifugation and stored immediately at −80° C. Samples were subsequently thawed, prepared for analysis by protein precipitation with acetonitrile, and analysed by tandem LCMS using electrospray ionisation using a matrix-matched calibration curve. PK parameters were calculated from the resulting data.

in vivo [4] = assay type: in vivo; settings: male Beagle dog; for Vd / clearance / Cmax / half-life / AUC(0-t): in vivo; for Cmax / C 8 h: IV 0.5 mg/kg / PO 3 or 4 mg/kg study; for AUC(0-t): read-out: PO AUClast
Protocol: The pharmacokinetics of compounds were studied in vivo in dogs at doses of 0.5 mg/kg (IV) and 4 mg/kg (PO).
Male Beagle dogs were treated with experimental compounds via intravenous administration (n=2; 0.5 mg/kg) or oral administration (n=2; 3 or 4 mg/kg). Compounds were formulated as a solution in 20% dimethylacetamide/80% (2-hydroxypropyl)-β-cyclodextrin (20% w/v) (IV administration) or a solution in 10% dimethylacetamide/90% (2-hydroxypropyl)-β-cyclodextrin (20% w/v) (PO administration). […] Serial blood samples were collected from the jugular vein at 0.03, 0.08, 0.25, 0.5, 1, 2, 4, 6, 8 and 24 h post IV dosing of compound, and at 0.08, 0.25, 0.5, 1, 2, 4, 6, 8 and 24 h post oral dosing of compound, and plasma was prepared by centrifugation and stored immediately at −80° C. Samples were subsequently thawed, prepared for analysis by protein precipitation with acetonitrile, and analysed by tandem LCMS using electrospray ionisation using a matrix-matched calibration curve. PK parameters were calculated from the resulting data.

[5] = IV 1 mg/kg, read-out: IV t1/2 (converted)
[6] = IV 0.5 mg/kg, read-out: IV t1/2 (converted)
[7] = PO 3 or 4 mg/kg, read-out: PO t1/2 (converted)
[8] = PO 10 mg/kg, read-out: PO t1/2 (converted)

Row | Structure (SMILES) | CC50 (Cell cytotoxicity (CC50)) [µM] | half-life at 1 μM (in vitro [1]; dog) [h] | half-life at 1 μM (in vitro [1]; human) [h] | half-life at 1 μM (in vitro [1]; rat) [h] | half-life at 3 μM (in vitro [2]; dog) [h] | half-life at 3 μM (in vitro [2]; human) [h] | half-life at 3 μM (in vitro [2]; rat) [h] | Vd (in vivo [3]; IV 1 mg/kg) [L/kg] | clearance (in vivo [3]; IV 1 mg/kg) [mL/min/kg] | Cmax (in vivo [3]) [ng/mL] | half-life (in vivo [3]; [5]) [h] | AUC(0-t) (in vivo [3]; PO 10 mg/kg) [ng·h/mL] | C 8 h (in vivo [3]) [ng/mL] | F (in vivo [3]; IV 1 mg/kg, PO 10 mg/kg) [%] | Vd (in vivo [4]; IV 0.5 mg/kg) [L/kg] | clearance (in vivo [4]; IV 0.5 mg/kg) [mL/min/kg] | Cmax (in vivo [4]) [ng/mL] | half-life (in vivo [4]; [6]) [h] | AUC(0-t) (in vivo [4]; PO 3 or 4 mg/kg) [ng·h/mL] | half-life (in vivo [4]; [7]) [h] | also measured
1 | O=C(N[C@H]1N=C(c2ccccc2)c2ccccc2NC1=O)c1c(-c2ccccc2F)nn2cccnc12 [Example 2, 2-(2-Fluorophenyl)-N-[(3S)-2-oxo-5-phenyl-1,3-dihydro-1,4-benzodiazepin-3-yl]pyrazolo[1,5-a]pyrimidine-3-carboxamide] | > 25 | 7.38 | 3.08 | > 2.33 | 1.12 | 145 | 3.95 | 1.3 | 5 | 2410 | 3.1 | 34200 | 2290 | 103 | 0.92 | 1.3 | 1920 | 9.8 | 22300 | 11.1 | C 8 h (in vivo [4]): 968 ng/mL; F (in vivo [4]; IV 0.5 mg/kg, PO 3 or 4 mg/kg): 55%
2 | Cc1ccc(-c2nn3cccnc3c2C(=O)N[C@H]2N=C(c3ccccc3)c3cccc(F)c3NC2=O)cn1 [Example 50, N-[(3S)-9-fluoro-2-oxo-5-phenyl-1,3-dihydro-1,4-benzodiazepin-3-yl]-2-(6-methylpyridin-3-yl)pyrazolo[1,5-a]pyrimidine-3-carboxamide] | > 25 | 13.3 | 13.4 | 3.88 | > 3.1 | > 3.1 | 96.7 | 0.94 | 13 | 2040 | 1.2 | 20000 | 1003 | 152 | 1.3 | 1.7 | 1200 | 12.2 | 13300 | 16.1 | half-life (in vivo [3]; [8]): 2.4 h; C 8 h (in vivo [4]): 549 ng/mL; F (in vivo [4]; IV 0.5 mg/kg, PO 3 or 4 mg/kg): 65%
3 | CCc1ccc(-c2nn3cccnc3c2C(=O)N[C@H]2N=C(c3ccccc3)c3cccc(F)c3NC2=O)cn1 [Example 55] | > 25 | 1.87 | 2.93 | 1.01 | 2.43 | > 3.1 | 1.43 | 1.2 | 14.3 | 1420 | 2 | 14700 | 753 | 113 | 0.47 | 1.5 | 3210 | 5.4 | 20900 | 6.1 | half-life (in vivo [3]; [8]): 2.5 h; C 8 h (in vivo [4]): 720 ng/mL; F (in vivo [4]; IV 0.5 mg/kg, PO 3 or 4 mg/kg): 65%
